This is an account of results in US5614510A, “Pharmaceutical composition with improved bioavailability of inositol phosphate” (priority 1992, dated 1997).

Data set [1] can be described thus: bioavailability of IP3 in pigs: blood concentration of IP3 and AUC after intravenous, intraduodenal or oral administration. The format is in vivo. As for the experimental part:
The blood samples were assayed for the content of IP3 and these measurements were used for the calculation of the reference data as 100% of the substance is introduced into the blood stream after an intravenous injection.
Another five pigs were given the N(3-dodecanoyloxy)propyltrimethyl ammonium salt of IP3 as an intraduodenal dosing. The animals were treated with Atropin® and anaesthetized with Hypnodil®/Sedaperone® whereafter a laparotomy was carried out. Blood samples were collected at the time intervals mentioned above and the concentration of IP3 was determined in each sample. By calculating the area under the curve (AUC) from a graph where the concentration versus time is shown and comparing the obtained value with a similar calculation from the data after intravenous injection of the substance the bioavailability for the specific formulation is obtained.
Blood samples were collected at the same time intervals as above and the concentration of IP3 was determined. Following a similar procedure the AUC was determined.
(§1) Blood samples were collected and the concentration of IP3 were determined.
as §1

Where a name gives a salt, the structure may show the parent alone.

For the compound `O=P(O)(O)O[C@@H]1[C@H](OP(=O)(O)O)[C@H](O)[C@@H](O)[C@H](O)[C@H]1OP(=O)(O)O` [sodium salt, pentasodium salt of D-myo-inositol-1.2.6-triphosphate], the “Normalized AUC” value in data set [1] (pig, in vivo) is 3%. In addition, in data set [1] (pig, in vivo, iv), the “Normalized AUC” value is listed as 100%, the concentration at 0.25 h was 71000 nM, the concentration at 0.5 h is 47500 nM and the concentration at 1 h is 24900 nM. In data set [1] (pig, in vivo, iv), this compound had a concentration at 2 h of 9300 nM, a concentration at 4 h of 3200 nM, a concentration at 8 h of 400 nM and a concentration at 24 h of 200 nM. Further, the “conc. IP3” value in data set [1] (pig, in vivo, iv, 0 min) amounted to 0 nM. Moreover, in data set [1] (pig, in vivo, iv, 2 h), the concentration came out at 9300 nM. In addition, in data set [1] (pig, in vivo, po), the concentration at 0.25 h amounted to 200 nM, the concentration at 0.5 h was 500 nM, the concentration at 1 h came to 500 nM and the concentration at 2 h turned out to be 200 nM. Further, in data set [1] (pig, in vivo, po), the concentration at 4 h turned out to be 100 nM and the concentration at 6 h was determined as 100 nM. The “conc. IP3” value in data set [1] (pig, in vivo, po, 0 min) is 0 nM. For the same compound, the concentration in data set [1] (pig, in vivo, po, 1 h) was determined as 500 nM. Moreover, the “conc. IP3” value in data set [1] (pig, in vivo, po, 480 min) was found to be 0 nM. Besides, the “conc. IP3” value in data set [1] (pig, in vivo, po, 1440 min) was 0 nM.

In the case of “N-(hexyloxycarbonyl)methyl trimethyl ammonium inositol trisphosphate”, the “toxic effects on the intestinal barriers” value with intestinal barriers was “no toxic effects on the intestinal barriers”. Besides, in data set [1] (pig, in vivo), the “Normalized AUC” value turned out to be 75%. In addition, in data set [1] (pig, in vivo), the “bioavailability of the oral formulation” value is 75%. The “conc. IP3” value in data set [1] (pig, in vivo, 0 min) amounted to 0 nM. In addition, the concentration in data set [1] (pig, in vivo, 0.25 h) worked out at 18200 nM; in data set [1] (pig, in vivo, 0.5 h), 29600 nM; in data set [1] (pig, in vivo, 1 h), 20100 nM; in data set [1] (pig, in vivo, 2 h) it was 12200 nM; in data set [1] (pig, in vivo, 4 h), 4300 nM; in data set [1] (pig, in vivo, 6 h) it was 1500 nM. In data set [1] (pig, in vivo, 24 h), this compound returned a concentration of 100 nM.

For “N(3-dodecanoyloxy)propyltrimethylammonium inositol trisphosphate”, the “conc. IP3” value in data set [1] (pig blood, oral formulation given as intraduodenal dosing, 0 hrs) was found to be 0 nM. For the same compound, the “Normalized AUC” value in data set [1] (pig, in vivo) stood at 46%. In addition, the “bioavailability of the oral formulation” value in data set [1] (pig, in vivo) was determined as 46%. Also, the concentration in data set [1] (pig, in vivo, 0.25 h) was 6300 nM; in data set [1] (pig, in vivo, 0.5 h), 9400 nM; in data set [1] (pig, in vivo, 1 h) it was 10800 nM; in data set [1] (pig, in vivo, 2 h), 7600 nM; in data set [1] (pig, in vivo, 4 h), 2200 nM; in data set [1] (pig, in vivo, 6 h) it was 1000 nM. In addition, the concentration in data set [1] (pig, in vivo, 8 h) was determined as 800 nM; in data set [1] (pig, in vivo, 24 h) it was 100 nM.
